Legend:
[1] = system: Nurr1 over-expressing C17.2 clones; test: Treatment of Nurr1 clones with trophic factors, mitogens, cytokines and other agents; TH immunoreactivity; assay type: cell-based, mouse; conditions: Nurr1 clones without co-culture; factors alone or combined
Excerpt: C17.2 cells were cotransfected with a CMX-Nurr1 expression vector (Perlmann, T. et al. Genes Dev. 9, 769-782 (1995)) and PGK-puromycin resistance plasmids (Nurr1 clones) or a PGK-puromycin alone (mock clones). For reporter assays, C17.2 parental cells were transfected with the Nurr1 expression vector, the reporter plasmid (NGFIB-binding response element (NBRE) triplet upstream of TK minimal promoter fused to firefly luciferase) and a pRSV-alkaline phosphatase plasmid at a 2:1:2 ratio.
(§1) C17.2 neural stem cells (Snyder, E. Y. et al. Cell 68, 33-51 (1992)) were maintained and passaged as previously described (Snyder, E. Y. et al. Cell 68, 33-51 (1992)). Ventral mesencephala from E16 rat embryos were dissected, mechanically dissociated and plated at a final density of 1×10^5 cells/cm^2 on poly-D-lysine coated culture wells in a defined, serum-free medium (N^2, consisting of a 1:1 mixture of F12 and DMEM containing insulin (10 ng/ml), transferrin (100 μg/ml), putrescine (100 μM), progesterone (20 nM), selenium (30 nM) glucose (6 mg/ml), and bovine serum albumin (1 mg/ml)). After 24 hours in vitro, co-cultures were initiated by directly plating 2.5−5×10^4 C17.2-derived cells into the primary cultures; all ages of cultures given use this point as 0 DIV. […] Purified Type 1 astrocytes were obtained from mixed glial cultures derived from various regions of P1 rats according to a standard protocol (McCarthy, K. D. et al. J. Cell Biol. 85, 890-902 (1980)). After replating into 6- or 12-well plates, astrocytes were grown to confluency in serum-containing media and changed to N2 medium. After 3-5 DIV, co-cultures were initiated in fresh N2 as described above. All factors were added once, at the initiation of co-culture (concentrations are noted in the Results and Discussion), with the exception of 5-bromodeoxyuridine (BrdU), which was added 4-6 hours prior to fixation. Cultures were maintained in a humidified 5% CO2, 95% air incubator at 37 C and fixed after given time periods with 4% paraformaldehyde for 45 minutes for immunocytochemical analysis.
Fixed cultures were incubated with one of the following antibodies, diluted appropriately in phosphate-buffered saline (PBS) containing 1% bovine serum albumin and 0.3% Triton-X 100: mouse anti-BrdU, 1:50 (DAKO, Denmark), mouse anti-β-tubulin, Type III (TuJ1), 1:250 (Sigma), mouse anti-TH, 1:1000 (Incstar, USA), rabbit anti-β-galactosidase, 1:250 (Cappel, USA) rabbit anti-GFAP, 1:500 (DAKO, Denmark), rabbit anti-AHD-2, 1:4000. Incubations were either carried out at 4° C. overnight, or at room temperature for 1 hour. […] After washing, cultures were incubated for 1-3 hr with appropriate secondary antibodies (biotinylated horse-anti-mouse IgG or goat-anti-rabbit IgG, Vector, USA), 1:100, in the same dilution buffer. Immunostaining was visualized with the Vector Laboratory ABC immunoperoxidase kit, using either AEC (red) or SG (grey) substrates. […] Quantitative immunocytochemical data represent means and standard errors from 100-500 cells counted in each of 3-6 separate wells from 2-4 experiments. For quantitation of TH expression in co-cultures of primary and C-17.2-derived cells, TH was visualized with the brightfield AEC substrate, while β-gal was assessed using FITC, thus all data expressed as “% TH+” represents the number of TH+/β-gal+divided by total β-gal positive cells.

RXR retinoid receptors = conditions: Lehmann et al. 1992; cited from earlier work
parental C17.2 cells = test: Co-culture of parental C17.2 cells with primary E16 ventral mesencephalic cells; TH expression; assay type: cell-based, mouse; conditions: parental C17.2 cells in co-culture; SR11237 to 1 μM, bFGF to 10 ng/ml
Description: (§2) C17.2 neural stem cells (Snyder, E. Y. et al. Cell 68, 33-51 (1992)) were maintained and passaged as previously described (Snyder, E. Y. et al. Cell 68, 33-51 (1992)). Ventral mesencephala from E16 rat embryos were dissected, mechanically dissociated and plated at a final density of 1×10^5 cells/cm^2 on poly-D-lysine coated culture wells in a defined, serum-free medium (N^2, consisting of a 1:1 mixture of F12 and DMEM containing insulin (10 ng/ml), transferrin (100 μg/ml), putrescine (100 μM), progesterone (20 nM), selenium (30 nM) glucose (6 mg/ml), and bovine serum albumin (1 mg/ml)). After 24 hours in vitro, co-cultures were initiated by directly plating 2.5−5×10^4 C17.2-derived cells into the primary cultures; all ages of cultures given use this point as 0 DIV. […]
(§3) Fixed cultures were incubated with one of the following antibodies, diluted appropriately in phosphate-buffered saline (PBS) containing 1% bovine serum albumin and 0.3% Triton-X 100: mouse anti-BrdU, 1:50 (DAKO, Denmark), mouse anti-β-tubulin, Type III (TuJ1), 1:250 (Sigma), mouse anti-TH, 1:1000 (Incstar, USA), rabbit anti-β-galactosidase, 1:250 (Cappel, USA) rabbit anti-GFAP, 1:500 (DAKO, Denmark), rabbit anti-AHD-2, 1:4000. […] Quantitative immunocytochemical data represent means and standard errors from 100-500 cells counted in each of 3-6 separate wells from 2-4 experiments. […]

Nurr1 clones = test: bFGF pretreatment of Nurr1 clones before co-culture with primary ventral mesencephalic cultures; BrdU labeling and TH expression; assay type: cell-based, mouse; conditions: bFGF pretreatment 5 DIV
Description: as §2, §3

C17.2 cells = conditions: Kitchens et al. 1994; cited from earlier work
C17.2 clonal lines = test: Baseline proliferation of clonal lines after extended factor treatment in serum-free medium; assay type: cell-based, mouse; conditions: after extended treatment with the factor in serum-free medium; most clonal lines
Description: as §1, with “Cultures were maintained in a humidified 5% CO2, 95% air incubator at 37 C and fixed after given time periods with 4% paraformaldehyde for 45 minutes for immunocytochemical analysis.” left out

[2] = system: Nurr1-c42-derived dopaminergic neurons; test: Response of TH positive c42 cells in co-culture to neurotrophic factors; assay type: cell-based, mouse; conditions: 9 DIV, after SR11237 and bFGF induction; compared to N2 control; NT-3 30 ng/ml
Description: as §2, §3

Nurr1-C17.2 clone 42 = test: Co-culture of Nurr1-C17.2 clone 42 with primary E16 ventral mesencephalic cells; TH expression; assay type: cell-based, mouse; conditions: clone 42 with primary VM cells
Description: as §2, §3

Compound: NCCc1ccc(O)c(O)c1 [dopamine]
- induction of TH expression [1]: None of these factors induced TH expression in any of the clones

Compound: CC1(C)CCC(C)(C)c2cc(C3(c4ccc(C(=O)O)cc4)OCCO3)ccc21 [SR11237, reference compound]
- stimulation of RXR retinoid receptors (RXR retinoid receptors): specifically stimulates RXR retinoid receptors
- induction of TH expression (parental C17.2 cells): did not induce expression of TH

Compound: insulin-like growth factor
- induction of TH expression [1]: None of these factors induced TH expression in any of the clones

Compound: sonic hedgehog
- induction of TH expression [1]: None of these factors induced TH expression in any of the clones

Compound: bFGF: basic fibroblast growth factor, mitogen
- % TH+ cells after co-culture (Nurr1 clones; co-culture 9 DIV, highest value, clone 42): ≤ 45%
- BrdU labeling of pretreated Nurr1 clones (Nurr1 clones; 24 hours after passage into co-culture, versus cells split directly out of serum-containing medium): increased
- mitogenic effect (C17.2 cells): directly mitogenic
- baseline proliferation after passage into SFM alone (C17.2 clonal lines): remained unexpectedly elevated
- induction of TH expression [1]: None of these factors induced TH expression in any of the clones
- number of TH+ cells in the culture [2]: dramatically increased the number of TH+ cells
- induction of TH expression (parental C17.2 cells): did not induce expression of TH

Compound: CC1=C(/C=C/C(C)=C/C=C/C(C)=C/C(=O)O)C(C)(C)CCC1 [all-trans retinoic acid, reference compound]
- effect on TH expression in co-culture (in words) (Nurr1-C17.2 clone 42): without effect

Compound: EGF: epidermal growth factor, mitogen (NSDSECPLSHDGYCLHDGVCMYIEALDKYACNCVVGYIGERCQYRDLKWWELR; Epidermal growth factor; UniProt P01133 971-1023, looked up)
- mitogenic effect (C17.2 cells): directly mitogenic
- baseline proliferation after passage into SFM alone (C17.2 clonal lines): remained unexpectedly elevated
- induction of TH expression [1]: None of these factors induced TH expression in any of the clones
- effect on TH expression in co-culture (in words) (Nurr1-C17.2 clone 42): effects of bFGF could be substituted by EGF

Source: US7465582B1, “Nurr-1 induction of a dopaminergic neuronal fate in a neural stem cell or neural progenitor cell in vitro” (Neuro Therapeutics AB, priority 2000, dated 2008)
